Patent publication US9113629B2, “4-amino-6-(4-substituted-phenyl)-picolinates and 6-amino-2-(4-substituted-phenyl)-pyrimidine-4-carboxylates and their use as herbicides” (DOW AGROSCIENCES LLC, priority 2013, dated 2015)

Tests used:
[1] = test system: APESV: bentgrass (Apera spica-venti); experiment: Post-emergent Test III, herbicidal activity in wheat and barley; type: in vivo; settings: for pest or weed control at 35 g/ha / pest or weed control at 70 g/ha / pest or weed control at 140 g/ha: Apera spica-venti, post-emergence, 504 h, read-out: Visual Growth Reduction (%) 21 Days After Application APESV; for pest or weed control at 35 g/ha: 35 g ai/ha; for pest or weed control at 70 g/ha: 70 g ai/ha; for pest or weed control at 140 g/ha: 140 g ai/ha; for GR50 APESV / GR80 APESV: probit analysis, 21 days after application; for GR50 APESV: dose for growth reduction of 50 percent; for GR80 APESV: dose for growth reduction of 80 percent
How it was run: (§1)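 Plants at the second to third true-leaf stage, grown in a greenhouse at about 18/17 °C with a 14 h photoperiod, were sprayed post-emergence at 187 L/ha with the high rate and ½× to 1/16× serial dilutions in an acetone/DMSO/crop-oil/surfactant carrier. Injury was rated visually at 21 d on a 0–100% scale, and GR20–GR90 were derived by probit analysis.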

[2] = test system: MATSS: scented mayweed (Matricaria chamomilla), pineappleweed (Matricaria matricarioides); experiment: as above; type: in vivo; settings: for pest or weed control at 35 g/ha / pest or weed control at 70 g/ha / pest or weed control at 140 g/ha: Matricaria chamomilla, post-emergence, 504 h, read-out: Visual Growth Reduction (%) 21 Days After Application MATSS; for pest or weed control at 35 g/ha: 35 g ai/ha; for pest or weed control at 70 g/ha: 70 g ai/ha; for pest or weed control at 140 g/ha: 140 g ai/ha; for GR50 MATSS / GR80 MATSS: probit analysis, 21 days after application; for GR50 MATSS: dose for growth reduction of 50 percent; for GR80 MATSS: dose for growth reduction of 80 percent
How it was run: as §1

[3] = test system: KCHSC: kochia (Kochia scoparia); experiment: as above; type: in vivo; settings: for pest or weed control at 35 g/ha / pest or weed control at 70 g/ha / pest or weed control at 140 g/ha: Bassia scoparia, post-emergence, 504 h, read-out: Visual Growth Reduction (%) 21 Days After Application KCHSC; for pest or weed control at 35 g/ha: 35 g ai/ha; for pest or weed control at 70 g/ha: 70 g ai/ha; for pest or weed control at 140 g/ha: 140 g ai/ha; for GR50 KCHSC / GR80 KCHSC: probit analysis, 21 days after application; for GR50 KCHSC: dose for growth reduction of 50 percent; for GR80 KCHSC: dose for growth reduction of 80 percent
How it was run: as §1

[4] = test system: TRZSS: wheat, including spring and winter (Triticum aestivum); experiment: as above; type: in vivo; settings: for pest or weed control at 35 g/ha / pest or weed control at 70 g/ha / pest or weed control at 140 g/ha: Triticum aestivum, post-emergence, 504 h, read-out: Visual Growth Reduction (%) 21 Days After Application TRZSS; for pest or weed control at 35 g/ha: 35 g ai/ha; for pest or weed control at 70 g/ha: 70 g ai/ha; for pest or weed control at 140 g/ha: 140 g ai/ha; for GR20 TRZSS: probit analysis, dose for growth reduction of 20 percent, 21 days after application, crop
How it was run: as §1

[5] = test system: VERPE: bird's-eye speedwell (veronica persica); experiment: as above; type: in vivo; settings: for pest or weed control at 35 g/ha / pest or weed control at 70 g/ha / pest or weed control at 140 g/ha: Veronica persica, post-emergence, 504 h, read-out: Visual Growth Reduction (%) 21 Days After Application VERPE; for pest or weed control at 35 g/ha: 35 g ai/ha; for pest or weed control at 70 g/ha: 70 g ai/ha; for pest or weed control at 140 g/ha: 140 g ai/ha; for GR50 VERPE / GR80 VERPE: probit analysis, 21 days after application; for GR50 VERPE: dose for growth reduction of 50 percent; for GR80 VERPE: dose for growth reduction of 80 percent
How it was run: as §1

[6] = test system: LOLSS: ryegrass including, Italian ryegrass (Lolium multiflorum), rigid ryegrass (Lolium rigidum), annual ryegrass (Lolium multiflorum subsp. Gaudini); experiment: as above; type: in vivo; settings: probit analysis, 21 days after application; for GR50 LOLSS: dose for growth reduction of 50 percent; for GR80 LOLSS: dose for growth reduction of 80 percent
How it was run: as §1

[7] = test system: HORSS: barley, including spring and winter (Hordeum vulgare); experiment: as above; type: in vivo; settings: for pest or weed control at 35 g/ha / pest or weed control at 70 g/ha / pest or weed control at 140 g/ha: Hordeum vulgare, post-emergence, 504 h, read-out: Visual Growth Reduction (%) 21 Days After Application HORSS; for pest or weed control at 35 g/ha: 35 g ai/ha; for pest or weed control at 70 g/ha: 70 g ai/ha; for pest or weed control at 140 g/ha: 140 g ai/ha; for GR20 HORSS: probit analysis, dose for growth reduction of 20 percent, 21 days after application, crop
How it was run: as §1

[8] = as above; type: in vivo, Lolium multiflorum, Lolium rigidum; settings: Lolium multiflorum, post-emergence, 504 h, read-out: Visual Growth Reduction (%) 21 Days After Application LOLSS; for pest or weed control at 35 g/ha: 35 g ai/ha; for pest or weed control at 70 g/ha: 70 g ai/ha; for pest or weed control at 140 g/ha: 140 g ai/ha
How it was run: as §1

SMILES	pest or weed control at 35 g/ha [1]	pest or weed control at 70 g/ha [1]	pest or weed control at 140 g/ha [1]	GR50 APESV [1]	GR80 APESV [1]	pest or weed control at 35 g/ha [2]	pest or weed control at 70 g/ha [2]	pest or weed control at 140 g/ha [2]	GR50 MATSS [2]	GR80 MATSS [2]	pest or weed control at 35 g/ha [3]	pest or weed control at 70 g/ha [3]	pest or weed control at 140 g/ha [3]	GR50 KCHSC [3]	GR80 KCHSC [3]	pest or weed control at 35 g/ha [4]	pest or weed control at 70 g/ha [4]	pest or weed control at 140 g/ha [4]	GR20 TRZSS [4]	pest or weed control at 35 g/ha [5]	other results
Nc1cc(-c2ccc(Br)c(F)c2F)nc(C(=O)O)c1Cl [Compound 91]	45 to 59%	45 to 59%	60 to 74%	67 g ai/ha	>140 g ai/ha	60 to 74%	75 to 84%	85 to 94%	11 g ai/ha	75 g ai/ha	75 to 84%	85 to 94%	85 to 94%	2 g ai/ha	47 g ai/ha	75 to 84%	85 to 94%	85 to 94%	1 g ai/ha	30 to 44%	pest or weed control at 70 g/ha [5]: 30 to 44%; pest or weed control at 140 g/ha [5]: 45 to 59%; GR50 VERPE [5]: 123 g ai/ha; GR80 VERPE [5]: >140 g ai/ha; GR50 LOLSS [6]: >140 g ai/ha; GR80 LOLSS [6]: >140 g ai/ha; pest or weed control at 35 g/ha [7]: 75 to 84%; pest or weed control at 70 g/ha [7]: 75 to 84%; pest or weed control at 140 g/ha [7]: 85 to 94%; GR20 HORSS [7]: 1 g ai/ha; pest or weed control at 35 g/ha [8]: 0 to 29%; pest or weed control at 70 g/ha [8]: 0 to 29%; pest or weed control at 140 g/ha [8]: 0 to 29%
Nc1c(F)c(-c2ccc(Cl)c(F)c2)nc(C(=O)O)c1Cl [Compound 217]	85 to 94%	85 to 94%	95 to 100%	6 g ai/ha	15 g ai/ha	85 to 94%	85 to 94%	85 to 94%	34 g ai/ha	>140 g ai/ha	85 to 94%	95 to 100%	95 to 100%	2 g ai/ha	6 g ai/ha	75 to 84%	75 to 84%	85 to 94%	2 g ai/ha	60 to 74%	pest or weed control at 70 g/ha [5]: 60 to 74%; pest or weed control at 140 g/ha [5]: 60 to 74%; GR50 VERPE [5]: 19 g ai/ha; GR80 VERPE [5]: 73 g ai/ha; GR50 LOLSS [6]: 32 g ai/ha; GR80 LOLSS [6]: >140 g ai/ha; pest or weed control at 35 g/ha [7]: 75 to 84%; pest or weed control at 70 g/ha [7]: 75 to 84%; pest or weed control at 140 g/ha [7]: 75 to 84%; GR20 HORSS [7]: 7 g ai/ha; pest or weed control at 35 g/ha [8]: 45 to 59%; pest or weed control at 70 g/ha [8]: 60 to 74%; pest or weed control at 140 g/ha [8]: 60 to 74%
